Tests used:
in vivo [1] = settings: rat, iv, 2 mg/kg
[2] = rat, in vivo, ip, 2 mg/kg, 1 h
in vivo [3] = settings: rat, brain/plasma, ip, 2 mg/kg
in vivo [4] = settings: rat, brain, ip, 2 mg/kg
P-gp = assay: in vitro; settings: dog, MDCK-MDR1
in vivo [5] = settings: rat, po, 2 mg/kg
in vivo [6] = settings: rat, brain/plasma, ip, 2 mg/kg; remark: listed apart in the source
in vivo [7] = settings: rat, plasma, ip, 2 mg/kg
[8] = rat, in vivo, ip, 2 mg/kg, 1 h; remark: listed apart in the source

CCCc1nc(C)c2c(C)nc3ccc(OC)nc3n12
Vd (in vivo [1]): 2.4 L/kg
Druguptake(free)/dose [2]: 0.4 ng/mL
Kp uu at 1 h (in vivo [3]): 3.81
concentration at 1 h (in vivo [4]): 118 ng/mL
Papp (P-gp): 33 ×10⁻⁶ cm/s
bioavailability (in vivo [5]): 19%
Kp at 1 h (in vivo [6]): 1.67
concentration at 1 h (in vivo [7]): 72 ng/mL
Cp(f)/dose [8]: 0.1 ng/mL

Cn1nc(-c2ccccc2Cl)c2c3cc(F)cc(F)c3nnc21
Papp (P-gp): 36 ×10⁻⁶ cm/s

CCCc1nc(C)c2c(C)nc3scnc3n12
Papp (P-gp): 68 ×10⁻⁶ cm/s

COc1cc(OC)c2nnc3c(c(C4CC4)nn3C)c2c1
Papp (P-gp): 62 ×10⁻⁶ cm/s

Source: ChEMBL document CHEMBL4371089, “Novel, potent, selective, and brain penetrant phosphodiesterase 10A inhibitors” (Bioorg Med Chem Lett, 2019)
